Read-outs that look alike come from different tables or passages of the source.
Tests used:
AKT1 E17K = target: T1, AKT1 E17K (Homo sapiens, UniProt P31749, E17K); experiment: Live cell AKT1 E17K target engagement by NanoBRET competitive probe displacement; assay type: cell-based; settings: HEK293 cells transfected with kinase-NanoLuciferase fusion, 2 h at 37° C.
T1 construct: expressed in transfected cells; host or cells: HEK293
Experimental: Determining Live Cell AKT1 E17K, AKT1 WT, and AKT2 Target Engagement by NanoBRET Competitive Probe Displacement.
Live cell target engagement assays were performed as described (Vasta, J. D. et al. Cell Chem Biol 2018, 25(11), 206-214). Briefly, HEK293 cells were transfected with plasmids encoding kinase-NanoLuciferase fusion proteins overnight. Cells were then treated with serial dilutions of compound and an ˜EC50 concentration of fluorescently-tagged ATP-competitive tracer (Promega). After incubation for 2 h at 37° C., luciferase substrate and extracellular luciferase inhibitor were added to all wells, and luminescent intensity at 460 nm and 600 nm were measured on a multimode plate-reader. The ratio of E600/E460 was calculated to give the tracer engagement signal (BRET). IC50 values were calculated by fitting BRET values to a log(inhibitor) vs. response Hill equation.

[1] = test system: LAPC4 prostate cancer cells; experiment: Antiproliferative effects in LAPC4 cells (CellTiter Glo); assay type: cell-based; settings: LAPC4 cells (AKT1 E17K allele), read-out: LAPC4 proliferation IC50
Experimental: Antiproliferative Effects in LAPC4 Cells.
LAPC4 prostate cancer cells (Klein, K. A. et al. Nat Med 1997, 3, 402-408), which express the AKT1 E17K allele, were grown in IMDM media (Hyclone) supplemented with 12% FBS+1% P/S. To assess compound effects on growth, 1,000 cells/well were seeded in 384 well assay plates, incubated with compound dilutions dissolved in DMSO. After 72 h, intracellular ATP content was assessed with CellTiter Glo reagent (Promega) according to the manufacturer's instructions. IC50 values were calculated by fitting luminescence values to a log(inhibitor) vs. response Hill equation.

T1 sequence (P31749 whole entry E17K, the tested form may be a part): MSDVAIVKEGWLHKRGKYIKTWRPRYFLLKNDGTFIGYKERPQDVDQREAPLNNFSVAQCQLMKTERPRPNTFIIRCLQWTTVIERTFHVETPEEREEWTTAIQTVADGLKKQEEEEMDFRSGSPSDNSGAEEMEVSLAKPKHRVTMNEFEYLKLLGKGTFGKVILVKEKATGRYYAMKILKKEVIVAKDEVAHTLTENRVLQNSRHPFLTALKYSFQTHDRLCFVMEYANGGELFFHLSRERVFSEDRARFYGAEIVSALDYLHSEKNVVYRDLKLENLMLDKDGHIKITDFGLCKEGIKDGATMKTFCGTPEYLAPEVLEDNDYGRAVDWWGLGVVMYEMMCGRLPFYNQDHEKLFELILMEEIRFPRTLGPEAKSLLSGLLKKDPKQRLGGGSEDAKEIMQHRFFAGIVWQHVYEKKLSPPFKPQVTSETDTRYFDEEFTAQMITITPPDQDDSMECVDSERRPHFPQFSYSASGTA

| Compound | IC50 (AKT1 E17K) | IC50 ([1]; Homo sapiens, LAPC4, 72 h) | IC50 ([1]; 72 h) |
| --- | --- | --- | --- |
| C=CC(=O)N1CCCC(c2cn([C@H]3CCc4cc(-n5c(-c6cccnc6N)nc6ccc(-n7cccn7)nc65)ccc43)nn2)C1 (single isomer, unassigned) [Example 167, 1-((*)-3-(1-((S)-5-(2-(2-aminopyridin-3-yl)-5-(1H-pyrazol-1-yl)-3H-imidazo[4,5-b]pyridin-3-yl)-2,3-dihydro-1H-inden-1-yl)-1H-1,2,3-triazol-4-yl)piperidin-1-yl)prop-2-en-1-one] | 37.1 nM | 479 nM |  |
| C=CC(=O)N1C[C@H]2COC[C@@H](C1)C2N[C@H]1CCc2cc(-n3c(-c4cccnc4N)nc4ccc(C5CC5)nc43)ccc21 (single isomer, unassigned) [Example 171, 1-((1R,5S,9*)-9-(((S)-5-(2-(2-aminopyridin-3-yl)-5-cyclopropyl-3H-imidazo[4,5-b]pyridin-3-yl)-2,3-dihydro-1H-inden-1-yl)amino)-3-oxa-7-azabicyclo[3.3.1]nonan-7-yl)prop-2-en-1-one] | > 1000 nM |  | 6610 nM |
| C=CC(=O)N1CCC(N[C@@H]2c3ccc(-n4c(-c5cccnc5N)nc5ccc(-n6cccn6)nc54)cc3CC2C)CC1 (single isomer, unassigned) [Example 182, 1-(4-(((1S,2*)-5-(2-(2-aminopyridin-3-yl)-5-(1H-pyrazol-1-yl)-3H-imidazo[4,5-b]pyridin-3-yl)-2-methyl-2,3-dihydro-1H-inden-1-yl)amino)piperidin-1-yl)prop-2-en-1-one] | 152 nM |  | 3160 nM |
| C=CC(=O)N1CCC(N[C@@H]2c3ccc(-n4c(-c5cccnc5N)nc5ccc(C6CC6)nc54)cc3CC2F)CC1 (single isomer, unassigned) [Example 202, 1-(4-(((1R,2*)-5-(2-(2-aminopyridin-3-yl)-5-cyclopropyl-3H-imidazo[4,5-b]pyridin-3-yl)-2-fluoro-2,3-dihydro-1H-inden-1-yl)amino)piperidin-1-yl)prop-2-en-1-one] | 111 nM | 3090 nM |  |
| C=CC(=O)N1CCC(N[C@H]2CCc3cc(-n4c(-c5cccnc5N)nc5ccc(-n6cccn6)nc54)ccc32)C[C@H]1C(F)F (single isomer, unassigned) [Example 215, 1-((2S,4*)-4-(((S)-5-(2-(2-aminopyridin-3-yl)-5-(1H-pyrazol-1-yl)-3H-imidazo[4,5-b]pyridin-3-yl)-2,3-dihydro-1H-inden-1-yl)amino)-2-(difluoromethyl)piperidin-1-yl)prop-2-en-1-one] | 4.56 nM |  | 42.3 nM |
| C=CC(=O)N1CC(F)C(N[C@H]2CCc3cc(-n4c(-c5cccnc5N)nc5ccc(-n6cccn6)nc54)ccc32)C(F)C1 (single isomer, unassigned) [Example 220, 1-((3*,4*,5*)-4-(((S)-5-(2-(2-aminopyridin-3-yl)-5-(1H-pyrazol-1-yl)-3H-imidazo[4,5-b]pyridin-3-yl)-2,3-dihydro-1H-inden-1-yl)amino)-3,5-difluoropiperidin-1-yl)prop-2-en-1-one] | 380 nM | > 10000 nM |  |
| C=CC(=O)N1CC(F)C(N[C@H]2CCc3cc(-n4c(-c5cccnc5N)nc5ccc(-n6cccn6)nc54)ccc32)C(F)C1 (single isomer, unassigned) [Example 221, 1-((3*,4*,5*)-4-(((S)-5-(2-(2-aminopyridin-3-yl)-5-(1H-pyrazol-1-yl)-3H-imidazo[4,5-b]pyridin-3-yl)-2,3-dihydro-1H-inden-1-yl)amino)-3,5-difluoropiperidin-1-yl)prop-2-en-1-one] | 567 nM |  | > 10000 nM |
| C=CC(=O)N1CC(F)C(N[C@H]2CCc3cc(-n4c(-c5cccnc5N)nc5ccc(-n6cccn6)nc54)ccc32)C(F)C1 (single isomer, unassigned) [Example 222, 1-((3*,5*)-4-(((S)-5-(2-(2-aminopyridin-3-yl)-5-(1H-pyrazol-1-yl)-3H-imidazo[4,5-b]pyridin-3-yl)-2,3-dihydro-1H-inden-1-yl)amino)-3,5-difluoropiperidin-1-yl)prop-2-en-1-one] | > 1000 nM |  | > 10000 nM |
| C=CC(=O)N1CC(F)C(N[C@H]2CCc3cc(-n4c(-c5cccnc5N)nc5ccc(-n6cccn6)nc54)ccc32)C(F)C1 (single isomer, unassigned) [Example 223, 1-((3*,5*)-4-(((S)-5-(2-(2-aminopyridin-3-yl)-5-(1H-pyrazol-1-yl)-3H-imidazo[4,5-b]pyridin-3-yl)-2,3-dihydro-1H-inden-1-yl)amino)-3,5-difluoropiperidin-1-yl)prop-2-en-1-one] | > 1000 nM |  | > 10000 nM |
| C=CC(=O)N1CCC(N[C@@H]2c3c(F)cc(-n4c(-c5cccnc5N)nc5ccc(-n6cccn6)nc54)cc3CC2F)CC1 (single isomer, unassigned) [Example 341, 1-(4-(((1R,2*)-5-(2-(2-aminopyridin-3-yl)-5-(1H-pyrazol-1-yl)-3H-imidazo[4,5-b]pyridin-3-yl)-2,7-difluoro-2,3-dihydro-1H-inden-1-yl)amino)piperidin-1-yl)prop-2-en-1-one] | 80.3 nM |  |  |
| C=CC(=O)N1CCN(C2CCc3cc(-n4c(-c5cccnc5N)nc5ccc(-n6cccn6)nc54)ccc32)CC1 (stereo not shown) [Example 204, 1-(4-{5-[2-(2-aminopyridin-3-yl)-5-(pyrazol-1-yl)imidazo[4,5-b]pyridin-3-yl]-2,3-dihydro-1H-inden-1-yl}piperazin-1-yl)prop-2-en-1-one] | 287 nM | 3820 nM |  |
| C=CC(=O)N1CCC(N[C@H]2CCc3cc(-n4c(-c5cccnc5N)nc5ccc(-c6ccccc6)nc54)ccc32)CC1 [Example 209, (S)-1-(4-((5-(2-(2-aminopyridin-3-yl)-5-phenyl-3H-imidazo[4,5-b]pyridin-3-yl)-2,3-dihydro-1H-inden-1-yl)amino)piperidin-1-yl)prop-2-en-1-one] | 2.29 nM | 17 nM |  |
| C=CC(=O)N1CCC(N[C@H]2CCc3cc(-n4c(C5CC5)nc5ccc(-n6cccn6)nc54)ccc32)CC1 [Example 248, (S)-1-(4-((5-(2-cyclopropyl-5-(1H-pyrazol-1-yl)-3H-imidazo[4,5-b]-430-pyridine-3-yl)-2,3-dihydro-1H-inden-1-yl)amino)piperidin-1-yl)prop-2-en-1-one] | > 1000 nM | > 10000 nM |  |
| C=CC(=O)N1CCC(N[C@H]2CCc3cc(-n4c(-c5cccnc5N)nc5ccc(CN6CCOCC6)nc54)ccc32)CC1 [Example 260, 1-(4-{[(1S)-5-[2-(2-aminopyridin-3-yl)-5-(morpholin-4-ylmethyl)imidazo[4,5-b]pyridin-3-yl]-2,3-dihydro-1H-inden-1-yl]amino}piperidin-1-yl)prop-2-en-1-one] | > 1000 nM | > 10000 nM |  |
| C=CC(=O)N1Cc2cccc(C(=O)N[C@H]3CCc4cc(-n5c(-c6cccnc6N)nc6ccc(-n7cccn7)nc65)ccc43)c2C1 [Example 266, (S)-2-acryloyl-N-(5-(2-(2-aminopyridin-3-yl)-5-(1H-pyrazol-1-yl)-3H-imidazo[4,5-b]pyridin-3-yl)-2,3-dihydro-1H-inden-1-yl)isoindoline-4-carboxamide] | 3.34 nM | 4.4 nM |  |
| C=CC(=O)N1CCC(N[C@H]2CCc3cc(-n4c(-c5cccnc5N)nc5ccc(N6C7CCC6COC7)nc54)ccc32)CC1 [Example 278, 1-(4-{[(1S)-5-[2-(2-aminopyridin-3-yl)-5-{3-oxa-8-azabicyclo[3.2.1]octan-8-yl}imidazo[4,5-b]pyridin-3-yl]-2,3-dihydro-1H-inden-1-yl]amino}piperidin-1-yl)prop-2-en-1-one] | 164 nM | 1850 nM |  |
| C=CC(=O)N1CCC(N[C@H]2CCc3cc(-n4c(-c5cccnc5N)nc5ccc(C6COC6)nc54)ccc32)CC1 [Example 279, 1-(4-{[(1S)-5-[2-(2-aminopyridin-3-yl)-5-(oxetan-3-yl)imidazo[4,5-b]pyridin-3-yl]-2,3-dihydro-1H-inden-1-yl]amino}piperidin-1-yl)prop-2-en-1-one] | 168 nM | 1570 nM |  |
| C=CC(=O)N1CCC(N[C@H]2CCc3cc(-n4c(-c5ccccc5C#N)nc5ccc(-n6cccn6)nc54)ccc32)CC1 [Example 284, 2-{3-[(1S)-1-{[1-(prop-2-enoyl)piperidin-4-yl]amino}-2,3-dihydro-1H-inden-5-yl]-5-(pyrazol-1-yl)imidazo[4,5-b]pyridin-2-yl}benzonitrile] | 273 nM | 7210 nM |  |
| C=CC(=O)N1CCC(N[C@H]2CCc3cc(-n4c(-c5ccccc5C(F)F)nc5ccc(-n6cccn6)nc54)ccc32)CC1 [Example 285, (S)-1-(4-((5-(2-(2-(difluoromethyl)phenyl)-5-(1H-pyrazol-1-yl)-3H-imidazo[4,5-b]pyridin-3-yl)-2,3-dihydro-1H-inden-1-yl)amino)piperidin-1-yl)prop-2-en-1-one] | 604 nM | 1550 nM |  |

Reference: patent US12570655B2, “Cysteine covalent modifiers of AKT1 and uses thereof” (Terremoto Biosciences, Inc., priority 2023, dated 2026)
